ChEMBL document CHEMBL4680149, “Biological evaluation and chemoproteomics reveal potential antibacterial targets of a cajaninstilbene-acid analogue” (Eur J Med Chem, 2020)
pIC50: −log10 of the molar value. Active and inactive are the calls of the source.

Experiments:
Staphylococcus aureus [1] = assay: Antibacterial activity against methicillin resistant Staphylococcus aureus ATCC 43300 persisters assessed as reduction in colony formation at 40 ug/ml incubated for 8 hrs in presence of 50 ug/ml Ca2+ by colony counting method; assay type: functional, organism-based; settings: dose 40.0 µg/ml
RAW264.7 = assay: Cytotoxicity against mouse RAW264.7 cells assessed as reduction in cell viability incubated for 48 hrs by MTT assay; assay type: cell-based; settings: RAW264.7, 48 h
Staphylococcus aureus [2] = assay: Antibacterial activity against methicillin resistant Staphylococcus aureus ATCC 43300 persisters assessed as eradication of colony formation at 2X MIC incubated for 4 hrs by colony counting method; assay type: functional, organism-based
Staphylococcus aureus [3] = assay: Resistance index, ratio of MIC for antibacterial activity against Staphylococcus aureus ATCC 25923 measured after 60 days of serial passage to MIC for antibacterial activity against Staphylococcus aureus ATCC25923 measured after 16 hrs; assay type: functional
Staphylococcus aureus [4] = assay: Antibacterial activity against methicillin resistant Staphylococcus aureus ATCC 43300 persisters assessed as reduction in colony formation at 40 ug/ml incubated for 8 hrs by colony counting method; assay type: functional, organism-based; settings: dose 40.0 µg/ml
Staphylococcus aureus [5] = assay: Antibacterial activity against methicillin resistant Staphylococcus aureus ATCC 43300 persisters assessed as reduction in colony formation at 4 ug/ml incubated for 8 hrs by colony counting method; assay type: functional, organism-based; settings: dose 4.0 µg/ml
Staphylococcus aureus [6] = assay: (§1) Binding affinity to moaB in Staphylococcus aureus ATCC 25923 assessed as protein labeling at 5 uM incubated for 1 hr in presence of (E)-6-(2-fluorostyryl)-2,4-dihydroxy-3-(3-methylbut-2-enyl)benzoic acid followed by UV irradiation for 20 mins by pull down based in-gel fluorescence scanning analysis; settings: time 80.0 min
Staphylococcus aureus [7] = assay: (§2) Binding affinity to PgsA in methicillin resistant Staphylococcus aureus ATCC 43300 assessed as protein labeling at 5 uM incubated for 1 hr in presence of (E)-6-(2-fluorostyryl)-2,4-dihydroxy-3-(3-methylbut-2-enyl)benzoic acid followed by UV irradiation for 20 mins by pull down based in-gel fluorescence scanning analysis; settings: time 80.0 min
Staphylococcus aureus [8] = assay: Binding affinity to moaB in methicillin resistant Staphylococcus aureus ATCC 43300 assessed as protein labeling at 5 uM incubated for 1 hr followed by UV irradiation for 20 mins by pull down based in-gel fluorescence scanning analysis; settings: time 80.0 min
Staphylococcus aureus [9] = assay: Binding affinity to modA in methicillin resistant Staphylococcus aureus ATCC 43300 assessed as protein labeling at 5 uM incubated for 1 hr followed by UV irradiation for 20 mins by pull down based in-gel fluorescence scanning analysis; settings: time 80.0 min
Staphylococcus aureus [10] = assay: Binding affinity to PgsA in Staphylococcus aureus ATCC 25923 assessed as protein labeling at 5 uM incubated for 1 hr in presence of (E)-6-(2-fluorostyryl)-2,4-dihydroxy-3-(3-methylbut-2-enyl)benzoic acid followed by UV irradiation for 20 mins by pull down based in-gel fluorescence scanning analysis; settings: time 80.0 min
Staphylococcus aureus [11] = assay: Binding affinity to moaB in Staphylococcus aureus ATCC 25923 assessed as protein labeling at 5 uM incubated for 1 hr followed by UV irradiation for 20 mins by pull down based in-gel fluorescence scanning analysis; settings: time 80.0 min
Staphylococcus aureus [12] = assay: Binding affinity to CshA in Staphylococcus aureus ATCC 25923 assessed as protein labeling at 5 uM incubated for 1 hr in presence of (E)-6-(2-fluorostyryl)-2,4-dihydroxy-3-(3-methylbut-2-enyl)benzoic acid followed by UV irradiation for 20 mins by pull down based in-gel fluorescence scanning analysis; settings: time 80.0 min
Staphylococcus aureus [13] = assay: as §2, with “modA” for “PgsA”; settings: time 80.0 min
Staphylococcus aureus [14] = assay: Binding affinity to CshA in Staphylococcus aureus ATCC 25923 assessed as protein labeling at 5 uM incubated for 1 hr followed by UV irradiation for 20 mins by pull down based in-gel fluorescence scanning analysis; settings: time 80.0 min
Staphylococcus aureus [15] = assay: Binding affinity to YidC in methicillin resistant Staphylococcus aureus ATCC 43300 assessed as protein labeling at 5 uM incubated for 1 hr followed by UV irradiation for 20 mins by pull down based in-gel fluorescence scanning analysis; settings: time 80.0 min
Staphylococcus aureus [16] = assay: Binding affinity to rpsH in Staphylococcus aureus ATCC 25923 assessed as protein labeling at 5 uM incubated for 1 hr in presence of (E)-6-(2-fluorostyryl)-2,4-dihydroxy-3-(3-methylbut-2-enyl)benzoic acid followed by UV irradiation for 20 mins by pull down based in-gel fluorescence scanning analysis; settings: time 80.0 min
Staphylococcus aureus [17] = assay: as §2, with “rpsH” for “PgsA”; settings: time 80.0 min
Staphylococcus aureus [18] = assay: Binding affinity to PgsA in Staphylococcus aureus ATCC 25923 assessed as protein labeling at 5 uM incubated for 1 hr followed by UV irradiation for 20 mins by pull down based in-gel fluorescence scanning analysis; settings: time 80.0 min
Staphylococcus aureus [19] = assay: as §2, with “YidC” for “PgsA”; settings: time 80.0 min
Staphylococcus aureus [20] = assay: Binding affinity to His-tagged recombinant Staphylococcus aureus PgsA expressed in Escherichia coli Rosetta DE3 at 5 uM incubated for 1 hr in presence of (E)-6-(2-fluorostyryl)-2,4-dihydroxy-3-(3-methylbut-2-enyl)benzoic acid followed by UV irradiation for 20 mins by in-gel fluorescence scanning analysis; settings: time 80.0 min
Staphylococcus aureus [21] = assay: Binding affinity to YidC in Staphylococcus aureus ATCC 25923 assessed as protein labeling at 5 uM incubated for 1 hr in presence of (E)-6-(2-fluorostyryl)-2,4-dihydroxy-3-(3-methylbut-2-enyl)benzoic acid followed by UV irradiation for 20 mins by pull down based in-gel fluorescence scanning analysis; settings: time 80.0 min
Staphylococcus aureus [22] = assay: Binding affinity to YidC in Staphylococcus aureus ATCC 25923 assessed as protein labeling at 5 uM incubated for 1 hr followed by UV irradiation for 20 mins by pull down based in-gel fluorescence scanning analysis; settings: time 80.0 min
Staphylococcus aureus [23] = assay: Binding affinity to CshA in methicillin resistant Staphylococcus aureus ATCC 43300 assessed as protein labeling at 5 uM incubated for 1 hr followed by UV irradiation for 20 mins by pull down based in-gel fluorescence scanning analysis; settings: time 80.0 min
Staphylococcus aureus [24] = assay: Binding affinity to modA in Staphylococcus aureus ATCC 25923 assessed as protein labeling at 5 uM incubated for 1 hr followed by UV irradiation for 20 mins by pull down based in-gel fluorescence scanning analysis; settings: time 80.0 min
Staphylococcus aureus [25] = assay: Binding affinity to HsIU/ClpY in Staphylococcus aureus ATCC 25923 assessed as protein labeling at 5 uM incubated for 1 hr followed by UV irradiation for 20 mins by pull down based in-gel fluorescence scanning analysis; settings: time 80.0 min
Staphylococcus aureus [26] = assay: as §1, with “HsIU/ClpY” for “moaB”; settings: time 80.0 min
Staphylococcus aureus [27] = assay: Bacteriostatic activity against Staphylococcus aureus ATCC 25923 assessed as reduction in bacterial growth at 4 ug/ml incubated for 16 hrs by Kirby-Bauer test method; assay type: functional, organism-based; settings: dose 4.0 µg/ml
Staphylococcus aureus [28] = assay: as §2, with “HsIU/ClpY” for “PgsA”; settings: time 80.0 min
Staphylococcus aureus [29] = assay: Binding affinity to rpsH in methicillin resistant Staphylococcus aureus ATCC 43300 assessed as protein labeling at 5 uM incubated for 1 hr followed by UV irradiation for 20 mins by pull down based in-gel fluorescence scanning analysis; settings: time 80.0 min
Staphylococcus aureus [30] = assay: Binding affinity to modA in Staphylococcus aureus ATCC 25923 assessed as protein labeling at 5 uM incubated for 1 hr in presence of (E)-6-(2-fluorostyryl)-2,4-dihydroxy-3-(3-methylbut-2-enyl)benzoic acid followed by UV irradiation for 20 mins by pull down based in-gel fluorescence scanning analysis; settings: time 80.0 min
Staphylococcus aureus [31] = assay: as §2, with “moaB” for “PgsA”; settings: time 80.0 min
Staphylococcus aureus [32] = assay: Binding affinity to PgsA in methicillin resistant Staphylococcus aureus ATCC 43300 assessed as protein labeling at 5 uM incubated for 1 hr followed by UV irradiation for 20 mins by pull down based in-gel fluorescence scanning analysis; settings: time 80.0 min
Staphylococcus aureus [33] = assay: Binding affinity to rpsH in Staphylococcus aureus ATCC 25923 assessed as protein labeling at 5 uM incubated for 1 hr followed by UV irradiation for 20 mins by pull down based in-gel fluorescence scanning analysis; settings: time 80.0 min
Staphylococcus aureus [34] = assay: as §2, with “CshA” for “PgsA”; settings: time 80.0 min
Staphylococcus aureus [35] = assay: Antibacterial activity against Staphylococcus aureus ATCC 25923 assessed as reduction in bacterial growth incubated for 16 hrs by broth microdilution method; assay type: functional
Staphylococcus aureus [36] = assay: Binding affinity to HsIU/ClpY in methicillin resistant Staphylococcus aureus ATCC 43300 assessed as protein labeling at 5 uM incubated for 1 hr followed by UV irradiation for 20 mins by pull down based in-gel fluorescence scanning analysis; settings: time 80.0 min
Staphylococcus aureus [37] = assay: Bacteriostatic activity against Staphylococcus aureus ATCC 25923 assessed as reduction in bacterial growth at 128 ug/ml incubated for 16 hrs by Kirby-Bauer test method; assay type: functional, organism-based; settings: dose 128.0 µg/ml

CCCCCCCCCC(=O)N[C@@H](Cc1c[nH]c2ccccc12)C(=O)N[C@H](CC(N)=O)C(=O)N[C@@H](CC(=O)O)C(=O)N[C@@H]1C(=O)NCC(=O)N[C@@H](CCCN)C(=O)N[C@@H](CC(=O)O)C(=O)N[C@H](C)C(=O)N[C@@H](CC(=O)O)C(=O)NCC(=O)N[C@H](CO)C(=O)N[C@@H]([C@H](C)CC(=O)O)C(=O)N[C@@H](CC(=O)c2ccccc2N)C(=O)O[C@@H]1C
active: Activity (Staphylococcus aureus [1])

COc1cc(/C=C/c2ccc(C(F)(F)F)cc2)c(C(=O)O)c(O)c1CC=C(C)C
4.30: pIC50 (RAW264.7)
active: Activity (Staphylococcus aureus [2])

O=C(O)c1cn(C2CC2)c2cc(N3CCNCC3)c(F)cc2c1=O [CIPROFLOXACIN]
active: Activity (Staphylococcus aureus [4])
50: Ratio (Staphylococcus aureus [3])

CO[C@H]1/C=C/O[C@@]2(C)Oc3c(C)c(O)c4c(O)c(c(/C=N/N5CCN(C)CC5)c(O)c4c3C2=O)NC(=O)/C(C)=C\C=C\[C@H](C)[C@H](O)[C@@H](C)[C@@H](O)[C@@H](C)[C@H](OC(C)=O)[C@@H]1C
active: Activity (Staphylococcus aureus [5])

C#CCCC1(CCOc2ccc(/C=C/c3cc(OC)c(CC=C(C)C)c(O)c3C(=O)O)c(F)c2)N=N1
active: Activity (Staphylococcus aureus [8]) | Activity (Staphylococcus aureus [9]) | Activity (Staphylococcus aureus [11]) | Activity (Staphylococcus aureus [14]) | Activity (Staphylococcus aureus [15]) | Activity (Staphylococcus aureus [18]) | Activity (Staphylococcus aureus [22]) | Activity (Staphylococcus aureus [23]) | Activity (Staphylococcus aureus [24]) | Activity (Staphylococcus aureus [25]) | Activity (Staphylococcus aureus [27]) | Activity (Staphylococcus aureus [29]) | Activity (Staphylococcus aureus [32]) | Activity (Staphylococcus aureus [33]) | Activity (Staphylococcus aureus [36])
8 µg/mL: MIC (Staphylococcus aureus [35])
inactive: Activity (Staphylococcus aureus [6]) | Activity (Staphylococcus aureus [7]) | Activity (Staphylococcus aureus [10]) | Activity (Staphylococcus aureus [12]) | Activity (Staphylococcus aureus [13]) | Activity (Staphylococcus aureus [16]) | Activity (Staphylococcus aureus [17]) | Activity (Staphylococcus aureus [19]) | Activity (Staphylococcus aureus [20]) | Activity (Staphylococcus aureus [21]) | Activity (Staphylococcus aureus [26]) | Activity (Staphylococcus aureus [28]) | Activity (Staphylococcus aureus [30]) | Activity (Staphylococcus aureus [31]) | Activity (Staphylococcus aureus [34])

C#CCCC1(CCOc2ccccc2)N=N1
inactive: Activity (Staphylococcus aureus [8]) | Activity (Staphylococcus aureus [9]) | Activity (Staphylococcus aureus [11]) | Activity (Staphylococcus aureus [14]) | Activity (Staphylococcus aureus [15]) | Activity (Staphylococcus aureus [18]) | Activity (Staphylococcus aureus [22]) | Activity (Staphylococcus aureus [23]) | Activity (Staphylococcus aureus [24]) | Activity (Staphylococcus aureus [25]) | Activity (Staphylococcus aureus [37]) | Activity (Staphylococcus aureus [29]) | Activity (Staphylococcus aureus [32]) | Activity (Staphylococcus aureus [33]) | Activity (Staphylococcus aureus [36])
